Like-named read-outs stand apart in the source and are kept apart here.
What was measured:
[1] = molecular target: luciferase (Photinus pyralis, UniProt P08659); assay: Luciferase interference deselection assay (D1); format: biochemical; settings: DRC format
Text: Starting with approximately 400,000 compounds, a set of 3991 compounds was left for testing in dose response experiments. Due to acquisition of a lower assay window for part of the data obtained during the screening campaign of ELFSC17_02, the data-set was split into P1 and P2 for analysis in ActivityBase. For P1 the initially set criterion of Z-score ≥4 (˜4%) was used for selection of actives and for P2 this selection criterion was adjusted to effect ≥40% (Z-score ˜15). […] In order to reduce this total number of 4205 compounds to a maximum of 4000 compounds allowed to be ordered in serial dilutions for dose response experiments (i.e. 1% of 400,000), the criterion for P1 was changed to Z-score >4.3 gaining 3344 compounds. […] The confirmed actives of ELF program ELFSC17-02 were tested as serial dilutions in the primary assay and deselection assay to generate dose response curves (DRCs). The serial dilutions consisted of 7 equidistant concentration steps (20 μM to 27.4 nM) and were tested in the primary and in the deselection assay in duplo (n=2) in 1536-well format. […] For the luciferase interference deselection assay in DRC-format, luciferase was left out in the Max effect wells, mimicking a 100% effect situation and resulting in a decreased signal. Compounds showing a signal decrease larger than 5 times the standard deviation (Z-score >5) were identified as luciferase […]. […] The ActivityBase application (IDBS) was used to analyze the data and to calculate quality parameters like Z-prime and Signal to Background ratio (S/B). For all compounds the % effect was calculated for all seven concentrations. ActivityBase was also used to calculate the pEC50 and Hill Slope. […] For compounds where no curve was fitted but reached >50% effect at 20 μM the Fit_Max was locked at 100% effect. For compounds where no curve was fitted but reached 100% effect at 20 μM and descended to <50% at 27 nM the Fit_Min was locked at 0%. […] Based on the results of C2 and D1 a list of 383 compounds was created as the preliminary hits, which were evaluated with MST (01). […]

[2] = molecular target: T1, SurA (Escherichia coli, UniProt P0ABZ6); assay: Microscale thermophoresis at the ELF (O1); format: binding, E. coli; design: key to MST score: 1 = binder; 6 = non-binder; settings: for MST score: score 1-6
Procedure: (§1) His-tagged SurA was labeled with the Monolith His-Tag Labeling Kit RED-tris-NTA (Nanotemper) according to the manufacturer's instructions.
Microscale thermophoresis measurements at the ELF were performed as follows. Compounds were tested in 8-point curves at a top starting concentration of 100-0.39 μM. […] 12-point dose responses of reference compound were also set up and tested between runs. Final measurement conditions were 40 mM HEPES pH 7.4, 0.1% Pluronic-F127, 50 nM SurA with Monolith settings—40% excitation and 60% MST power. MST data (capillary scan and shape, initial fluorescence and MST traces) were analyzed and a score was given to each compound.

[3] = molecular target: T1, SurA; assay: Microscale thermophoresis (Tuebingen, Monolith NT.115); format: binding, E. coli; settings: for MST score (Re-evaluation Tuebingen): re-evaluation of QHL compound remainders
Procedure: as §1
Microscale thermophoresis measurements were performed in 40 mM HEPES pH 7.4, 0.05% Tween-20 at 25° C. with a Monolith NT.115 (NanoTemper) in standard capillaries.

[4] = test system: E. coli BW25113, E. coli JW2496-3, E. coli ATCC 25922; assay: Minimal inhibitory concentration assay (bactericidal/bacteriostatic assessment); format: cell-based; settings: dilution series 100-1.7 μM
Text: The intended effect of a SurA inhibitor should be the induction of a disturbance of the outer membrane composition resulting in an increased susceptibility to antibiotic treatment. Of note, Vancomycin is typically not used to treat infections with Gram-negative bacteria, because it is excluded by the OM and not efficient at concentrations that could be achieved in patients. However, at appropriate dosing in vitro it can be used to detect outer membrane defects. For determining a potential sensitizing effect of Vancomycin treatment, the inventors first tested whether the compounds at hand were bactericidal per se. Therefore, the inventors performed a minimal inhibitory concentration (MIC) assay. To this end, 5 ml overnight cultures of E. coli BW25113 (Keio-Collection reference strain), E. coli JW2496-3 (Keio-Collection single gene knockout for bamB, which suffers from decreased outer membrane integrity) and E. coli ATCC 25922 (a reference strain recommended for antibiotic susceptibility testing) were grown in Mueller Hinton Broth, Cation adjusted (MHB-II). The next day, the OD was adjusted to obtain 1*10^8 CFU/ml using fresh MHB-II. Next, this bacterial solution was diluted 1:100 into 20 ml fresh MHB-II. 50 μl of this bacteria solution were then transferred into each well of a 96-well plate prefilled with 50 μl MHB-II supplemented with the desired compounds. The test plates for the bactericidal assessment contained dilution series of the compounds from 100-1.7 μM. Plates were sealed with a gas permeable membrane and incubated o/n at 37° C. in a humid chamber without shaking. After o/n incubation, bacterial growth was quantified by measuring the optical density at 600 nm wavelength in a multiplate reader. Compounds showing no growth inhibition at 100 μM were considered non-bactericidal. Of note, the bactericidal effect of Vancomycin was assessed similarly for each test strain using Vancomycin concentrations ranging from […]. This was done to identify a Vancomycin concentration at which the strains just managed to survive.

[5] = test system: E. coli; assay: Vancomycin MIC in presence of compound (strain not stated); format: cell-based; settings: in presence of 100 μM compound
Procedure: To test for the sensitizer properties of the compounds, the inventors then performed a sensitizer MIC assay. To this end, E. coli BW25113, E. coli JW2496-3, and E. coli ATCC 25922 inocula were prepared as described above. Each well of a 96-well plate was prefilled with a fixed compound concentration of 100 μM and a dilution series of Vancomycin ranging from […]. A sensitizing effect was defined as reduction of the MIC value of Vancomycin of the respective test strain.

[6] = Solubility estimate based on turbidity (OD600 nm); format: physicochemical
Text: The evaluation of these shelf derivatives included an estimate of their solubility based on the turbidity (OD600 nm) as well as their activity in the primary assay (2.1), their KD (2.2), their MIC reduction of Vancomycin (2.5) and their cytotoxicity (2.6) (Table 4).

T1 sequence (P0ABZ6 21-428): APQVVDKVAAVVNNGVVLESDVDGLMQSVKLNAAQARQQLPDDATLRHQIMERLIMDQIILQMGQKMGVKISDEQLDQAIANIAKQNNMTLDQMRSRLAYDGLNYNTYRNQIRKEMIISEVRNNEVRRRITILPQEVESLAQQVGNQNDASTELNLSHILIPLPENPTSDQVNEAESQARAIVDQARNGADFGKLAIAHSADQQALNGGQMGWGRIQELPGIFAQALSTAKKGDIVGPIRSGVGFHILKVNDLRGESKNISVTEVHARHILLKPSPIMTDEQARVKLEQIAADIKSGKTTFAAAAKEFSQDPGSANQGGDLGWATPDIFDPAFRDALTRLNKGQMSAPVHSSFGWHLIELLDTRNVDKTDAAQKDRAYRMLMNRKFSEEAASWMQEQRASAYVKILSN
Sequence of luciferase (P08659 whole entry): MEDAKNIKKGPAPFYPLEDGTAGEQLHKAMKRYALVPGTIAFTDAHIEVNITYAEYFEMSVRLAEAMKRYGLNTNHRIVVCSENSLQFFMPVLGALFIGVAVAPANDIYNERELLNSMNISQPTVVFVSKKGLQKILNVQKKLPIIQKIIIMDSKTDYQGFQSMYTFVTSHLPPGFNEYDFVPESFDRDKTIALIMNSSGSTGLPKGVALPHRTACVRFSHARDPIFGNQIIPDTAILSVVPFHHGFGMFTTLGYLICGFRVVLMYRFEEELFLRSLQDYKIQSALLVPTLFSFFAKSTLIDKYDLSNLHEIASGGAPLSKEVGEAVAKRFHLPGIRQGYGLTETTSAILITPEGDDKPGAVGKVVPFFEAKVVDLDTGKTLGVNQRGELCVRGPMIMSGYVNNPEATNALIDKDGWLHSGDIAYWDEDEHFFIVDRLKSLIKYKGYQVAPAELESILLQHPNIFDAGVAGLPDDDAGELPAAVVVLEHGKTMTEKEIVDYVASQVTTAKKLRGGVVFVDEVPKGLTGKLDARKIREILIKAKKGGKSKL

Row | SMILES | Deselection (D1) pIC50 ([1]; listed as QHL-10) | IC50 ([1]; read-out: Deselection (D1) pIC50 (converted)) | IC50 ([2]; 8-point curves 100-0.39 μM, 50 nM SurA, read-out: MST pIC50 (converted)) | MST score [2] | MST (Kd in mM) [3] | MST score (Re-evaluation Tuebingen) [3] | MST (KD) ([3]; resynthesized compounds) | Bacteriostatic MIC Assay Result [4] | Deselection (D1) pIC50 [1] | Kd ([3]; read-out: MST (Kd in mM)) | Kd ([3]; resynthesized compounds, read-out: MST (KD)) | MIC (Vanco, mg/ml) [5] | Solubility (in words) [6]
1 | NC(=O)c1nc(Cc2ccc(OCC(=O)O)cc2)[nH]c1NC(=O)c1ccc(-c2ccccc2)cc1 [Compound 2a, 2-(4-((5-([1,1′-biphenyl]-4-carboxamido)-4-carbamoyl-1H-imidazol-2-yl)methyl)phenoxy)acetic acid] | 5.16 | 6.92 µM | 39.8 µM | 1 | binding | 2 | binding | non-bacteriostatic | – | – | – | – | –
2 | CN(C)c1ccc(-c2nc3cc(NC(=O)Cn4cc5ccccc5n4)ccc3[nH]2)cc1 [QHL-24] | – | – | – | 1 | – | inconclusive | binding | – | 4.42 | 0.02 to 0.03 mM | 0.02 to 0.03 mM | 0.256 mg/mL | poor solubility

From US20240336573A1, “COMPOUND FOR THE TREATMENT AND PROPHYLAXIS OF INFECTIOUS DISEASES” (Eberhard Karls Universität Tübingen Medizinische Fakultät, priority 2021, published 2024)
